#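 Briefly, cells in 96-well plates were exposed to five compound concentrations for 48 h, and endpoints were estimated by linear interpolation. Abbreviation: GI50, concentration required for 50% inhibition of growth. TGI: concentration producing complete growth inhibition.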
# Tests used:
# Experiment in all cases: NCI anticancer screen, dose series, 48 h
# 786-0 renal = tested on: 786-0 renal
# A498 renal = tested on: A498 renal
# A549 NSCLC = tested on: A549 NSCLC
# ACHN renal = tested on: ACHN renal
# BT-549 breast = tested on: BT-549 breast
# CAKI-1 renal = tested on: CAKI-1 renal
# CCRF-CEM leukemia = tested on: CCRF-CEM leukemia
# COLO 205 colon = tested on: COLO 205 colon
# DU-145 prostate = tested on: DU-145 prostate
# EKVX NSCLC = tested on: EKVX NSCLC
# HCC-2998 colon = tested on: HCC-2998 colon
# HCT-116 colon = tested on: HCT-116 colon
# HCT-15 colon = tested on: HCT-15 colon
# HOP-62 NSCLC = tested on: HOP-62 NSCLC
# HOP-92 NSCLC = tested on: HOP-92 NSCLC
# HS 578T breast = tested on: HS 578T breast
# HT29 colon = tested on: HT29 colon
# IGROV1 ovarian = tested on: IGROV1 ovarian
# KM12 colon = tested on: KM12 colon
# LOX IMVI melanoma = tested on: LOX IMVI melanoma
# M14 melanoma = tested on: M14 melanoma
# MALME-3M melanoma = tested on: MALME-3M melanoma
# MCF7 breast = tested on: MCF7 breast
# MDA-MB-231 breast = tested on: MDA-MB-231 breast
# MDA-MB-435 = tested on: MDA-MB-435
# NCI-H226 lung = tested on: NCI-H226 lung
# NCI-H460 lung = tested on: NCI-H460 lung
# NCI-H522 lung = tested on: NCI-H522 lung
# NCI/ADR-RES ovarian = tested on: NCI/ADR-RES ovarian
# OVCAR-3 ovarian = tested on: OVCAR-3 ovarian
# OVCAR-4 ovarian = tested on: OVCAR-4 ovarian
# OVCAR-5 ovarian = tested on: OVCAR-5 ovarian
# OVCAR-8 ovarian = tested on: OVCAR-8 ovarian
# PC-3 prostate = tested on: PC-3 prostate
# RPMI-8226 leukemia = tested on: RPMI-8226 leukemia
# RXF 393 renal = tested on: RXF 393 renal
# SF-268 CNS = tested on: SF-268 CNS
# SF-295 CNS = tested on: SF-295 CNS
# SF-539 CNS = tested on: SF-539 CNS
# SK-MEL-2 melanoma = tested on: SK-MEL-2 melanoma
# SK-MEL-28 melanoma = tested on: SK-MEL-28 melanoma
# SK-MEL-5 melanoma = tested on: SK-MEL-5 melanoma
# SK-OV-3 ovarian = tested on: SK-OV-3 ovarian
# SN12C renal = tested on: SN12C renal
# SNB-19 CNS = tested on: SNB-19 CNS
# SNB-75 CNS = tested on: SNB-75 CNS
# SW-620 colon = tested on: SW-620 colon
# T-47D breast = tested on: T-47D breast
# TK-10 renal = tested on: TK-10 renal
# U251 CNS = tested on: U251 CNS
# UACC-257 melanoma = tested on: UACC-257 melanoma
# UACC-62 melanoma = tested on: UACC-62 melanoma
# UO-31 renal = tested on: UO-31 renal
smiles,measurement,setting,value
N#Cc1nc(-c2ccccc2)oc1S(=O)(=O)N1CCCCC1,GI50,786-0 renal,18.7 µM
same,TGI,786-0 renal,52.4 µM
same,GI50,A498 renal,> 100 µM
same,TGI,A498 renal,> 100 µM
same,GI50,A549 NSCLC,71.7 µM
same,TGI,A549 NSCLC,> 100 µM
same,GI50,ACHN renal,4.98 µM
same,TGI,ACHN renal,16.5 µM
same,GI50,BT-549 breast,13.7 µM
same,TGI,BT-549 breast,48.8 µM
same,GI50,CAKI-1 renal,7.37 µM
same,TGI,CAKI-1 renal,20.3 µM
same,GI50,CCRF-CEM leukemia,2.36 µM
same,TGI,CCRF-CEM leukemia,> 100 µM
same,GI50,COLO 205 colon,2.67 µM
same,TGI,COLO 205 colon,7.1 µM
same,GI50,DU-145 prostate,15.3 µM
same,TGI,DU-145 prostate,28.6 µM
same,GI50,EKVX NSCLC,> 100 µM
same,TGI,EKVX NSCLC,> 100 µM
same,GI50,HCC-2998 colon,17.1 µM
same,TGI,HCC-2998 colon,32.8 µM
same,GI50,HCT-116 colon,4.95 µM
same,TGI,HCT-116 colon,23.6 µM
same,GI50,HCT-15 colon,5.32 µM
same,TGI,HCT-15 colon,25.8 µM
same,GI50,HOP-62 NSCLC,> 100 µM
same,TGI,HOP-62 NSCLC,> 100 µM
same,GI50,HOP-92 NSCLC,6.29 µM
same,TGI,HOP-92 NSCLC,19.6 µM
same,GI50,HS 578T breast,23.1 µM
same,TGI,HS 578T breast,87.2 µM
same,GI50,HT29 colon,12.4 µM
same,TGI,HT29 colon,28.4 µM
same,GI50,IGROV1 ovarian,28.7 µM
same,TGI,IGROV1 ovarian,> 100 µM
same,GI50,KM12 colon,29.1 µM
same,TGI,KM12 colon,> 100 µM
same,GI50,LOX IMVI melanoma,1.51 µM
same,TGI,LOX IMVI melanoma,5.24 µM
same,GI50,M14 melanoma,11.2 µM
same,TGI,M14 melanoma,61 µM
same,GI50,MALME-3M melanoma,10.8 µM
same,TGI,MALME-3M melanoma,32 µM
same,GI50,MCF7 breast,9.02 µM
same,TGI,MCF7 breast,26.9 µM
same,GI50,MDA-MB-231 breast,25.4 µM
same,TGI,MDA-MB-231 breast,80.7 µM
same,GI50,MDA-MB-435,14.6 µM
same,TGI,MDA-MB-435,31.2 µM
same,GI50,NCI-H226 lung,10.3 µM
same,TGI,NCI-H226 lung,26.5 µM
same,GI50,NCI-H460 lung,26.6 µM
same,TGI,NCI-H460 lung,> 100 µM
same,GI50,NCI-H522 lung,2.08 µM
same,TGI,NCI-H522 lung,7.94 µM
same,GI50,NCI/ADR-RES ovarian,30.8 µM
same,TGI,NCI/ADR-RES ovarian,> 100 µM
same,GI50,OVCAR-3 ovarian,10.5 µM
same,TGI,OVCAR-3 ovarian,24.4 µM
same,GI50,OVCAR-4 ovarian,14.2 µM
same,TGI,OVCAR-4 ovarian,32.3 µM
same,GI50,OVCAR-5 ovarian,21.9 µM
same,TGI,OVCAR-5 ovarian,52.8 µM
same,GI50,OVCAR-8 ovarian,22.1 µM
same,TGI,OVCAR-8 ovarian,56.5 µM
same,GI50,PC-3 prostate,19.4 µM
same,TGI,PC-3 prostate,53.6 µM
same,GI50,RPMI-8226 leukemia,17.5 µM
same,TGI,RPMI-8226 leukemia,49.5 µM
same,GI50,RXF 393 renal,9.52 µM
same,TGI,RXF 393 renal,22.7 µM
same,GI50,SF-268 CNS,26.6 µM
same,TGI,SF-268 CNS,> 100 µM
same,GI50,SF-295 CNS,> 100 µM
same,TGI,SF-295 CNS,> 100 µM
same,GI50,SF-539 CNS,17.5 µM
same,TGI,SF-539 CNS,34.3 µM
same,GI50,SK-MEL-2 melanoma,15.3 µM
same,TGI,SK-MEL-2 melanoma,45.1 µM
same,GI50,SK-MEL-28 melanoma,17.5 µM
same,TGI,SK-MEL-28 melanoma,33.8 µM
same,GI50,SK-MEL-5 melanoma,30.9 µM
same,TGI,SK-MEL-5 melanoma,> 100 µM
same,GI50,SK-OV-3 ovarian,> 100 µM
same,TGI,SK-OV-3 ovarian,> 100 µM
same,GI50,SN12C renal,14.9 µM
same,TGI,SN12C renal,47.5 µM
same,GI50,SNB-19 CNS,72.3 µM
same,TGI,SNB-19 CNS,> 100 µM
same,GI50,SNB-75 CNS,18.3 µM
same,TGI,SNB-75 CNS,43.8 µM
same,GI50,SW-620 colon,4.17 µM
same,TGI,SW-620 colon,18.1 µM
same,GI50,T-47D breast,16.2 µM
same,TGI,T-47D breast,36.8 µM
same,GI50,TK-10 renal,22.1 µM
same,TGI,TK-10 renal,63.2 µM
same,GI50,U251 CNS,17.5 µM
same,TGI,U251 CNS,36.8 µM
same,GI50,UACC-257 melanoma,17.8 µM
same,TGI,UACC-257 melanoma,50.4 µM
same,GI50,UACC-62 melanoma,19.5 µM
same,TGI,UACC-62 melanoma,49.6 µM
same,GI50,UO-31 renal,15.1 µM
same,TGI,UO-31 renal,28.3 µM
